# System: U2OS_Bim cells
# Test: Apoptosis inhibition assay (Bim-induced apoptosis, cell viability by ATP level)
# Assay type: cell-based
# Conditions: U2OS_Bim cells; estimated (*Est.) / preliminary results; numbering of Tables 4a/4b; read-out: EC50
# Procedure, shortened: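 Apoptosis was triggered by doxycycline (0.1 μg/mL) induction of Bim, one hour after compound addition to U2OS_Bim cells. Survival was measured after 24 h from cellular ATP (CellTiter-Glo), relative to DMSO, with zVAD at 20 μM as rescue control. Data are duplicate means, some estimated from preliminary results.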
row,EC50 [nM],Compound
1,1 to 1000,Cc1cc(-c2cc(F)c(=O)n(Cc3ccc4c(c3)OCO4)c2)nc(S(=O)(=O)CCCN(c2ccccc2)C2CCC2)n1 [Compound 376]
2,1 to 1000,Cc1cc(-c2cc(F)c(=O)n(Cc3ccc4c(c3)OCO4)c2)nc(S(=O)(=O)CCCN(c2ccccc2)C(C)(C)C)n1 [Compound 377]
3,1 to 1000,Cc1cc(-c2cc(F)c(=O)n(Cc3ccc4c(c3)OCO4)c2)nc(S(=O)(=O)CCCN(c2ccccc2)C2CC2)n1 [Compound 378]
4,1 to 1000,Cc1cc(-c2cc(F)c(=O)n(Cc3ccc4c(c3)OCO4)c2)nc(S(=O)(=O)CCC(OCc2ccccc2F)c2cccnc2)n1 (centres unmarked) [Compound 384]
5,1 to 1000,Cc1cc(-c2cc(F)c(=O)n(Cc3ccc4c(c3)OCO4)c2)nc(S(=O)(=O)CCC(OCc2ccncc2)c2ccccc2)n1 (centres unmarked) [Compound 401]
6,1 to 1000,Cc1cc(-c2cc(F)c(=O)n(Cc3ccc4c(c3)OCO4)c2)nc(S(=O)(=O)CCC(OCc2ccncc2)c2ccccc2)n1 (centres unmarked) [Compound 402]
7,1 to 1000,Cc1cc(-c2cc(F)c(=O)n(Cc3ccc4c(c3)OCO4)c2)nc(S(=O)(=O)CCC(OCc2cccn2C)c2ccccc2)n1 (centres unmarked) [Compound 403]
8,1 to 1000,Cc1cc(-c2cc(F)c(=O)n(Cc3ccc4c(c3)OCO4)c2)nc(S(=O)(=O)CCC(OCc2cncn2C)c2ccccc2)n1 (centres unmarked) [Compound 404]
9,1 to 1000,Cc1cc(-c2cc(F)c(=O)n(Cc3ccc4c(c3)OCO4)c2)nc(S(=O)(=O)CCC(OCc2cccs2)c2ccccc2)n1 (centres unmarked) [Compound 405]
10,1 to 1000,Cc1cc(-c2cc(F)c(=O)n(Cc3ccc4c(c3)OCO4)c2)nc(S(=O)(=O)CCC(OCc2cncs2)c2ccccc2)n1 (centres unmarked) [Compound 406]
11,1 to 1000,Cc1cc(-c2cc(F)c(=O)n(Cc3ccc4c(c3)OCO4)c2)nc(S(=O)(=O)CCC(OCc2ccco2)c2ccccc2)n1 (centres unmarked) [Compound 407]
12,1 to 1000,Cc1cc(-c2cc(F)c(=O)n(Cc3ccc4c(c3)OCO4)c2)nc(S(=O)(=O)CCC(OCc2cnco2)c2ccccc2)n1 (centres unmarked) [Compound 408]
13,1 to 1000,Cc1cc(-c2cc(F)c(=O)n(Cc3ccc4c(c3)OCO4)c2)nc(S(=O)(=O)CCC(OCC2CCCCC2)c2ccccc2)n1 (centres unmarked) [Compound 409]
14,1 to 1000,Cc1cc(-c2cc(F)c(=O)n(Cc3ccc4c(c3)OCO4)c2)nc(S(=O)(=O)CCC(OCC2CCOCC2)c2ccccc2)n1 (centres unmarked) [Compound 410]
15,1 to 1000,Cc1cc(-c2cc(F)c(=O)n(Cc3ccc4c(c3)OCO4)c2)nc(S(=O)(=O)CCC(OCC2CCN(C)CC2)c2ccccc2)n1 (centres unmarked) [Compound 411]
16,1 to 1000,Cc1cc(-c2cc(F)c(=O)n(Cc3ccc4c(c3)OCO4)c2)nc(S(=O)(=O)CCC(OCC2CCCC2)c2ccccc2)n1 (centres unmarked) [Compound 412]
17,1 to 1000,Cc1cc(-c2cc(F)c(=O)n(Cc3ccc4c(c3)OCO4)c2)nc(S(=O)(=O)CCC(OCC2CCNC2)c2ccccc2)n1 (centres unmarked) [Compound 413]
18,1 to 1000,Cc1cc(-c2cc(F)c(=O)n(Cc3ccc4c(c3)OCO4)c2)nc(S(=O)(=O)CCC(OCC2CCOC2)c2ccccc2)n1 (centres unmarked) [Compound 414]
19,1 to 1000,Cc1cc(-c2cc(F)c(=O)n(Cc3ccc4c(c3)OCO4)c2)nc(S(=O)(=O)CCC(OCC2CCC2)c2ccccc2)n1 (centres unmarked) [Compound 415]
20,1 to 1000,Cc1cc(-c2cc(F)c(=O)n(Cc3ccc4c(c3)OCO4)c2)nc(S(=O)(=O)CCC(OCC2CN(C)C2)c2ccccc2)n1 (centres unmarked) [Compound 416]
21,1 to 1000,Cc1cc(-c2cc(F)c(=O)n(Cc3ccc4c(c3)OCO4)c2)nc(S(=O)(=O)CCC(OCC2COC2)c2ccccc2)n1 (centres unmarked) [Compound 417]
22,1 to 1000,Cc1cc(-c2cc(F)c(=O)n(Cc3ccc4c(c3)OCO4)c2)nc(S(=O)(=O)CCC(OCC2CC2)c2ccccc2)n1 (centres unmarked) [Compound 418]
23,1 to 1000,Cc1cc(-c2cc(F)c(=O)n(Cc3ccc4c(c3)OCO4)c2)nc(S(=O)(=O)CCC(OCC2CO2)c2ccccc2)n1 (centres unmarked) [Compound 419]
24,1 to 1000,Cc1cc(-c2cc(F)c(=O)n(Cc3ccc4c(c3)OCO4)c2)nc(S(=O)(=O)CCC(OCC(C)(C)C)c2ccccc2)n1 (centres unmarked) [Compound 421]

# More lines, now with the values behind:
row,Compound,EC50 [nM]
1,Cc1cc(-c2ccc(=O)n(Cc3ccc4nnn(C)c4c3)n2)nc(S(=O)(=O)CCC(OCc2ccccc2F)c2ccccc2)n1 (centres unmarked) [Compound 369],1 to 1000
2,Cc1cc(-c2cc(F)c(=O)n(Cc3ccc4c(c3)OCO4)c2)nc(S(=O)(=O)CCCC(=O)N(c2ccccc2)C2CCC2)n1 [Compound 370],1 to 1000
3,Cc1cc(-c2cc(F)c(=O)n(Cc3ccc4c(c3)OCO4)c2)nc(S(=O)(=O)CCCC(=O)N(c2ccccc2)C(C)(C)C)n1 [Compound 371],1 to 1000
4,Cc1cc(-c2cc(F)c(=O)n(Cc3ccc4c(c3)OCO4)c2)nc(S(=O)(=O)CCCC(=O)N(c2ccccc2)C2CC2)n1 [Compound 372],1 to 1000
5,Cc1cc(-c2cc(F)c(=O)n(Cc3ccc4nnn(C)c4c3)c2)nc(S(=O)(=O)CCCC(=O)N(c2ccccc2)C2CCC2)n1 [Compound 373],1 to 1000
6,Cc1cc(-c2cc(F)c(=O)n(Cc3ccc4nnn(C)c4c3)c2)nc(S(=O)(=O)CCCC(=O)N(c2ccccc2)C(C)(C)C)n1 [Compound 374],1 to 1000
7,Cc1cc(-c2cc(F)c(=O)n(Cc3ccc4nnn(C)c4c3)c2)nc(S(=O)(=O)CCCC(=O)N(c2ccccc2)C2CC2)n1 [Compound 375],1 to 1000
8,Cc1cc(-c2cc(F)c(=O)n(Cc3ccc4nnn(C)c4c3)c2)nc(S(=O)(=O)CCCN(c2ccccc2)C2CCC2)n1 [Compound 379],1 to 1000
9,Cc1cc(-c2cc(F)c(=O)n(Cc3ccc4nnn(C)c4c3)c2)nc(S(=O)(=O)CCCN(c2ccccc2)C(C)(C)C)n1 [Compound 380],1 to 1000
10,Cc1cc(-c2cc(F)c(=O)n(Cc3ccc4nnn(C)c4c3)c2)nc(S(=O)(=O)CCCN(c2ccccc2)C2CC2)n1 [Compound 381],1 to 1000
11,Cc1cc(-c2cc(F)c(=O)n(Cc3ccc4c(c3)OCO4)c2)nc(S(=O)(=O)CCCC(=O)N(C(C)(C)C)C(C)(C)C)n1 [Compound 382],1 to 1000
12,Cc1cc(-c2cc(F)c(=O)n(Cc3ccc4c(c3)OCO4)c2)nc(S(=O)(=O)CCC(OCc2ccccc2F)c2ccccn2)n1 (centres unmarked) [Compound 383],1 to 1000
13,Cc1cc(-c2cc(F)c(=O)n(Cc3ccc4c(c3)OCO4)c2)nc(S(=O)(=O)CCC(OCc2ccccc2F)c2ccncc2)n1 (centres unmarked) [Compound 385],1 to 1000
14,Cc1cc(-c2cc(F)c(=O)n(Cc3ccc4c(c3)OCO4)c2)nc(S(=O)(=O)CCC(OCc2ccccc2F)c2cccn2C)n1 (centres unmarked) [Compound 386],1 to 1000
15,Cc1cc(-c2cc(F)c(=O)n(Cc3ccc4c(c3)OCO4)c2)nc(S(=O)(=O)CCC(OCc2ccccc2F)c2cc3ccccc3n2C)n1 (centres unmarked) [Compound 387],1 to 1000
16,Cc1cc(-c2cc(F)c(=O)n(Cc3ccc4c(c3)OCO4)c2)nc(S(=O)(=O)CCC(OCc2ccccc2F)c2ccco2)n1 (centres unmarked) [Compound 388],1 to 1000
17,Cc1cc(-c2cc(F)c(=O)n(Cc3ccc4c(c3)OCO4)c2)nc(S(=O)(=O)CCC(OCc2ccccc2F)c2cccs2)n1 (centres unmarked) [Compound 389],1 to 1000
18,Cc1cc(-c2cc(F)c(=O)n(Cc3ccc4c(c3)OCO4)c2)nc(S(=O)(=O)CCC(OCc2ccccc2F)c2cncs2)n1 (centres unmarked) [Compound 390],1 to 1000
19,Cc1cc(-c2cc(F)c(=O)n(Cc3ccc4c(c3)OCO4)c2)nc(S(=O)(=O)CCC(OCc2ccccc2F)c2ccc3ncccc3c2)n1 (centres unmarked) [Compound 391],1 to 1000
20,Cc1cc(-c2cc(F)c(=O)n(Cc3ccc4c(c3)OCO4)c2)nc(S(=O)(=O)CCC(OCc2ccccc2F)c2ccc3ccn(C)c3c2)n1 (centres unmarked) [Compound 392],1 to 1000
21,Cc1cc(-c2cc(F)c(=O)n(Cc3ccc4c(c3)OCO4)c2)nc(S(=O)(=O)CCC(OCc2ccccc2F)c2ccc3ncn(C)c3c2)n1 (centres unmarked) [Compound 393],1 to 1000
22,Cc1cc(-c2cc(F)c(=O)n(Cc3ccc4c(c3)OCO4)c2)nc(S(=O)(=O)CCC(OCc2ccccc2F)c2ccc3ccoc3c2)n1 (centres unmarked) [Compound 394],1 to 1000
23,Cc1cc(-c2cc(F)c(=O)n(Cc3ccc4c(c3)OCO4)c2)nc(S(=O)(=O)CCC(OCc2ccccc2F)c2ccc3ncoc3c2)n1 (centres unmarked) [Compound 395],1 to 1000
24,Cc1cc(-c2cc(F)c(=O)n(Cc3ccc4c(c3)OCO4)c2)nc(S(=O)(=O)CCC(OCc2ccccc2F)c2ccc3ncsc3c2)n1 (centres unmarked) [Compound 396],1 to 1000
25,Cc1cc(-c2cc(F)c(=O)n(Cc3ccc4c(c3)OCO4)c2)nc(S(=O)(=O)CCC(OCc2ccccc2F)C2CCCCC2)n1 (centres unmarked) [Compound 397],1 to 1000
26,Cc1cc(-c2cc(F)c(=O)n(Cc3ccc4c(c3)OCO4)c2)nc(S(=O)(=O)CCC(OCc2ccccc2F)C2CCCCN2C)n1 (centres unmarked) [Compound 398],1 to 1000
27,Cc1cc(-c2cc(F)c(=O)n(Cc3ccc4c(c3)OCO4)c2)nc(S(=O)(=O)CCC(OCc2ccccc2F)C2CCCOC2)n1 (centres unmarked) [Compound 399],1 to 1000
28,Cc1cc(-c2cc(F)c(=O)n(Cc3ccc4c(c3)OCO4)c2)nc(S(=O)(=O)CCC(OCc2ccccc2F)C(C)(C)C)n1 (centres unmarked) [Compound 400],1 to 1000
29,Cc1cc(-c2cc(F)c(=O)n(Cc3ccc4c(c3)OCO4)c2)nc(S(=O)(=O)CCC(OCC2CN2C)c2ccccc2)n1 (centres unmarked) [Compound 420],1 to 1000
